According to the supplement of paper PMC13380429:
± gives the standard deviation of the averaged measurements.

What was measured:
Conditions in all cases: 72 h
[1] = system: HepG2; assay: drug sensitivity score (DSS) for viability; higher = more toxic; extreme values may be limits of the assay
[2] = system: Vero E6; assay: as above
[3] = system: Calu-3; assay: as above
[4] = system: U2OS; assay: as above
[5] = system: Caco-2; assay: as above
[6] = system: HepG2; assay: cell viability relative to DMSO; higher = less toxic
[7] = system: Vero E6; assay: as above
[8] = system: Calu-3; assay: as above
[9] = system: U2OS; assay: as above
[10] = system: Caco-2; assay: as above
[11] = system: HepG2; assay: relative viability EC50 (midpoint between 100% and the lowest measured viability); higher = less toxic
[12] = system: Vero E6; assay: as above
[13] = system: Calu-3; assay: as above
[14] = system: U2OS; assay: as above
[15] = system: Caco-2; assay: as above

| Compound | drug sensitivity score [1] | drug sensitivity score [2] | drug sensitivity score [3] | drug sensitivity score [4] | drug sensitivity score [5] | cell viability ([6]; 1 nM) [%] | cell viability ([6]; 10 nM) [%] | cell viability ([6]; 100 nM) [%] | cell viability ([6]; 1000 nM) [%] | cell viability ([6]; 10000 nM) [%] | cell viability ([7]; 1 nM) [%] | cell viability ([7]; 10 nM) [%] | cell viability ([7]; 100 nM) [%] | cell viability ([7]; 1000 nM) [%] | cell viability ([7]; 10000 nM) [%] | cell viability ([8]; 1 nM) [%] | cell viability ([8]; 10 nM) [%] | cell viability ([8]; 100 nM) [%] | cell viability ([8]; 1000 nM) [%] | cell viability ([8]; 10000 nM) [%] | cell viability ([9]; 1 nM) [%] | cell viability ([9]; 10 nM) [%] | cell viability ([9]; 100 nM) [%] | cell viability ([9]; 1000 nM) [%] | cell viability ([9]; 10000 nM) [%] | cell viability ([10]; 1 nM) [%] | cell viability ([10]; 10 nM) [%] | cell viability ([10]; 100 nM) [%] | cell viability ([10]; 1000 nM) [%] | cell viability ([10]; 10000 nM) [%] | relative viability EC50 [11] [µM] | relative viability EC50 [12] [µM] | relative viability EC50 [13] [µM] | relative viability EC50 [14] [µM] | relative viability EC50 [15] [µM] |
| --- | --- | --- | --- | --- | --- | --- | --- | --- | --- | --- | --- | --- | --- | --- | --- | --- | --- | --- | --- | --- | --- | --- | --- | --- | --- | --- | --- | --- | --- | --- | --- | --- | --- | --- | --- |
| CC(=O)OC[C@H](N)C(=O)O [O-acetyl-L-serine] | 0 | 0 | 0 | 0 | 0 | 115 | 103 | 106 | 110 | 95.2 | 114 | 89.8 | 99.2 | 103 | 104 | 111 | 97.6 | 105 | 92.5 | 97.1 | 104 | 104 | 99.3 | 105 | 98.9 | 104 | 109 | 90.3 | 106 | 94.9 | > 10 | > 10 | > 10 | > 10 | > 10 |
| O=C(/C=C/c1ccc(O)cc1)c1ccc(O)cc1O [isoliquiritigenin] | 0 | 0 | 0 | 0 | 0.2 | 102 | 107 | 91.9 | 101 | 96.5 | 99.4 | 107 | 93.6 | 104 | 113 | 103 | 93.7 | 107 | 107 | 112 | 97.3 | 99.7 | 103 | 98.2 | 94.9 | 102 | 92.1 | 95.6 | 92.2 | 86.4 | > 10 | > 10 | > 10 | > 10 | > 10 |
| CC(O)(P(=O)(O)O)P(=O)(O)O [etidronic-acid] | 0 | 0 | 0 | 0 | 0 | 92.3 | 105 | 105 | 100 | 94.6 | 92.7 | 91.1 | 96.1 | 90.1 | 95.8 | 93.2 | 103 | 109 | 92.1 | 105 | 102 | 97 | 98.6 | 103 | 102 | 103 | 91.5 | 103 | 98.2 | 104 | > 10 | > 10 | > 10 | > 10 | > 10 |
| C1=Cc2cccc(OCC3CNCCO3)c2C1 (stereo not given) [indeloxazine] | 0 | 0 | 0 | 0 | 2.3 | 105 | 111 | 104 | 93.1 | 91.7 | 104 | 106 | 102 | 102 | 93.8 | 105 | 93.8 | 104 | 97.1 | 97.8 | 95.2 | 97.8 | 101 | 99.3 | 96.8 | 101 | 94.2 | 86.4 | 88.9 | 90.3 | > 10 | > 10 | > 10 | > 10 | > 10 |
| C[C@H](Cc1ccc2c(c1)OC(C(=O)O)(C(=O)O)O2)NC[C@H](O)c1cccc(Cl)c1 | 0 | 0 | 0 | 0 | 0 | 97.9 | 101 | 103 | 101 | 97.4 | 97.5 | 97.2 | 93.1 | 96.4 | 97.9 | 103 | 101 | 90.6 | 92.9 | 91.1 | 104 | 101 | 99.1 | 99 | 102 | 103 | 101 | 104 | 97.3 | 111 | > 10 | > 10 | > 10 | > 10 | > 10 |
| COc1ccc(CCN(C)CCc2ccc(OC)c(OC)c2)cc1OC [YS-035] | 0 | 0 | 0 | 0 | 0 | 101 | 103 | 105 | 96.3 | 110 | 100 | 99.9 | 98.3 | 97.8 | 101 | 98.2 | 106 | 93.9 | 95.5 | 102 | 99.3 | 106 | 96.7 | 99.9 | 96.6 | 95.6 | 100 | 90.6 | 90.4 | 97.4 | > 10 | > 10 | > 10 | > 10 | > 10 |
| CS(=O)(=O)n1cc2c(n1)CN([C@H]1CO[C@H](c3cc(F)ccc3F)[C@@H](N)C1)C2 [omarigliptin] | 0 | 0 | 0 | 0 | 0 | 103 | 106 | 101 | 99.7 | 103 | 97.8 | 103 | 95.5 | 98.7 | 103 | 98.4 | 97.7 | 88.4 | 108 | 100 | 97.8 | 96.8 | 94.2 | 101 | 104 | 92.5 | 101 | 95.4 | 97.5 | 106 | > 10 | > 10 | > 10 | > 10 | > 10 |
| NC(N)=O [urea] | 0 | 0 | 0 | 0 | 0 | 82.1 | 86.1 | 90.2 | 86.5 | 94.2 | 97.8 | 100 | 104 | 92.3 | 103 | 100 | 92.1 | 93.8 | 114 | 89.3 | 95.8 | 97.9 | 98.6 | 101 | 97.2 | 96.4 | 93.4 | 102 | 94.5 | 108 | > 10 | > 10 | > 10 | > 10 | > 10 |
| CO[C@H](C(=O)[C@@H](O)[C@@H](C)O)[C@@H]1Cc2cc3cc(O[C@H]4C[C@@H](O[C@H]5C[C@@H](O)[C@H](O)[C@@H](C)O5)[C@@H](O)[C@@H](C)O4)c(C)c(O)c3c(O)c2C(=O)[C@H]1O[C@H]1C[C@@H](O[C@H]2C[C@@H](O[C@H]3C[C@](C)(O)[C@H](O)[C@@H](C)O3)[C@H](O)[C@@H](C)O2)[C@H](O)[C@@H](C)O1 [plicamycin] | 29.1 | 9.2 | 20.8 | 29.5 | 18.9 | 107 | 99.9 | 5.2 | 4.4 | 6.1 | 92.6 | 105 | 95.6 | 73.5 | 4.9 | 107 | 88.4 | 48.5 | 24 | 28.1 | 96.4 | 100 | 5.9 | 1 | 1.5 | 101 | 95 | 42.4 | 58.1 | 65.5 | 0.0321 | 1.46 | 0.0509 | 0.036 | 0.0245 |
| N[C@H](Cc1ccccc1)C(=O)O [D-phenylalanine] | 0 | 0 | 0 | 0 | 0 | 99.7 | 109 | 90.4 | 105 | 100 | 108 | 100 | 104 | 101 | 96.1 | 98.3 | 95.2 | 111 | 102 | 105 | 95.6 | 101 | 96.5 | 95.2 | 99.8 | 94.6 | 101 | 90.8 | 95.8 | 93.8 | > 10 | > 10 | > 10 | > 10 | > 10 |
| Nc1ncnc2c1ncn2[C@@H]1O[C@H](COP(=O)(O)OP(=O)(O)OP(=O)(O)OP(=O)(O)OC[C@H]2O[C@@H](n3cnc4c(N)ncnc43)[C@H](O)[C@@H]2O)[C@@H](O)[C@H]1O [diadenosine-tetraphosphate] | 0 | 0 | 0.1 | 0 | 0 | 94.6 | 101 | 114 | 102 | 104 | 99 | 102 | 96.5 | 102 | 97 | 106 | 104 | 94.9 | 89.6 | 92.4 | 94.5 | 98.1 | 97.7 | 97.5 | 107 | 99.4 | 97.8 | 99.3 | 102 | 107 | > 10 | > 10 | > 10 | > 10 | > 10 |
| CCS(=O)(=O)CCn1c([N+](=O)[O-])cnc1C [tinidazole] | 0 | 0 | 0 | 0 | 0 | 94.1 | 109 | 85.5 | 118 | 86.8 | 100 | 102 | 91.7 | 97.6 | 106 | 95.2 | 96.6 | 98.4 | 98.2 | 99.9 | 96.3 | 94.8 | 97.1 | 92 | 98.3 | 104 | 77.8 | 99 | 108 | 93.1 | > 10 | > 10 | > 10 | > 10 | > 10 |
| CC(C)(C)NC[C@H](O)COc1cccc2c1CCCC2=O [levobunolol] | 0 | 0 | 0 | 0 | 0 | 100 ± 4.1 | 95.8 ± 2.8 | 112 ± 2 | 94.8 ± 4.3 | 97.9 ± 2.4 | 105 ± 6.1 | 94.6 ± 2.8 | 95.6 ± 5.7 | 90.5 ± 3.1 | 101 ± 3.8 | 99.2 ± 9.6 | 102 ± 0.99 | 93.9 ± 3.1 | 103 ± 3.2 | 104.25 ± 0.071 | 97.15 ± 0.78 | 102 ± 2 | 101.5 ± 0.21 | 101.3 ± 0.78 | 103 ± 0.21 | 88 ± 1.8 | 94.8 ± 5.9 | 96 ± 4.7 | 101.3 ± 0.64 | 97.2 ± 1.1 | > 10 | > 10 | > 10 | > 10 | > 10 |
| CC(/C=C1\SC(=S)N(CC(=O)O)C1=O)=C\c1ccccc1 [epalrestat] | 0 | 0 | 0 | 0 | 0 | 100 | 96.4 | 102 | 95.6 | 106 | 98.3 | 95.4 | 94.7 | 101 | 102 | 102 | 96.8 | 96.7 | 97.8 | 107 | 99.4 | 98.1 | 98.4 | 103 | 100 | 92.6 | 87.2 | 95.8 | 104 | 98.8 | > 10 | > 10 | > 10 | > 10 | > 10 |
